“Also recorded” adds a separate entry of the source.
Key:
[1] = tested on: endothelium of injured coronary arteries; test: Reendothelialization by lectin Dolichos biflorus agglutinin immunohistochemistry; type: in vivo, pigs
Description: (§1) The animals were euthanized at 4 weeks. Under general anesthesia as described above, exsanguination was performed with replacement by 1 l of 0.9% NaCl solution. The heart was perfusion-fixed in vivo with 2 l of 10% buffered formalin at 200 mm Hg pressure. The heart was then removed, and the coronary arteries were harvested immediately. From the injured segment (identified in relation to side branches), serial sections of 3-5 mm were made, and stored in 10% buffered formalin solution. The sections were then treated with incremental concentrations of alcohol followed by treatment with xylene and paraffin. Slices of 6:m thickness were prepared, and stained with Verhoeff's stain for assessment of tissue response to injury. […] The % of reendothelialization and, the % of endothelial nitric oxide synthase (eNOS) expression were calculated as follows: (the total length of the luminal surface staining positively/the perimeter of the lumen)×100, respectively. Analysis was performed by an independent examiner with no knowledge of the treatment groups to which the sections belonged. […]

[2] = tested on: coronary arteries subjected to PTCA; test: Response to intracoronary acetylcholine by quantitative coronary angiography after PTCA; type: in vivo, pigs
Description: The study protocol was approved by the Animal Care and Ethical Research Committee of the Montreal Heart Institute. Juvenile farm pigs weighing 20-25 kg (1 female, and 8 castrated males) were used. On the day of the experiment, animals received 650 mg of acetylsalicylic acid and 30 mg of nifedipine orally, were premedicated with 6 mg/kg of tiletamine hydrochloride and zolazepam hydrochloride, and were given 0.05 mg of atropine intramuscularly. Under general anesthesia (a mixture of 1-1.5% isoflurane and oxygen enriched air), the right femoral artery was cannulated percutaneously. An 8 Fr arterial sheath was introduced, and […] of lidocaine and 250 U/kg of heparin were administered intra-arterially. Additional heparin was administered during PTCA if needed, to maintain an activated coagulation time of >300 seconds.
An 8 Fr right Amplatz guiding catheter and right Judkins guiding catheter were used for cannulation of the left and right coronary arteries, respectively. A standard balloon catheter (corresponding to a balloon/artery ratio of 1.1-1.3:1) was advanced over a 0.014″ floppy guide wire, and 3 successive 30-second inflations at 10 atm pressure were made with a 30 second interval between each inflation. PTCA was performed on all 3 coronary […] of each animal. For local delivery, the InfusaSleeve catheter (LocalMed Inc.) was used, which permits safe drug delivery with negligible additional injury (7). After balloon dilatation, each coronary artery of an animal was randomized to receive either 600:g of 17-beta estradiol (in 5 ml), vehicle alone (5 ml), or PTCA only. The vehicle 2-hydroxypropyl-beta-cyclodextrin (HPCD), and 17-beta estradiol were obtained from Sigma Chem. Co. For local delivery with the InfusaSleeve catheter, a proximal driving pressure of 10 atm and support balloon pressure of 6 atm were utilized.
All 9 animals underwent cardiac catheterization at the end of 4 weeks. After a baseline coronary angiogram, selective cannulation of the proximal portion of a coronary artery was performed with a single lumen balloon catheter (TotalCross, Schneider) for the administration of vasoactive agents. Acetylcholine (Ach) in increasing concentrations of 10^−7 M, 10^−6 M, 10^−5 M, 10^−4 M, was successively infused through the lumen port of the catheter. Each dose was administered for a duration of 3 minutes at a constant rate of 1 ml/min using an infusion pump. Coronary angiography was performed at the end of each dose. After infusion of the highest concentration of Ach (10^−4 M and angiography, 100:g of nitroglycerin was administered via the lumen port of the catheter, and a coronary angiogram performed. The same protocol was repeated for the other 2 coronary arteries. Heart rate, blood pressure, and ECG were monitored continuously throughout the experiment.
Coronary angiography was performed with a single plane imaging system (Electromed Intl). […] Care was taken to maintain the same angulation during angiography of a segment throughout the procedure. Ionic contrast (MD-76, Mallinckrodt Medical Inc) was used throughout the experiment. Images were captured at a frame speed of 30 frames/sec, and stored digitally. A segment of contrast-filled guiding catheter was included in every frame, for the purpose of calibration. Calibration was performed using the known diameter of the contrast-filled guiding catheter as the reference segment, to avoid error due to magnification. […]

[3] = tested on: proliferating SMC (PCNA-positive); test: PCNA immunohistochemistry of the proliferative response to injury; type: in vivo, pigs; conditions: 7 days after PTCA
Description: Following slicing with a microtome and blocking of non-specific antibodies, the sections were treated with mouse anti-proliferating cell nuclear antigen (PCNA) antibodies and diluted biotinylated goat anti-mouse antibodies. They were then incubated with avidin-biotin (Elite ABC Kit, Vector Laboratories), and developed with 3,3′-diaminobenzidine (Vector Laboratories). They were finally counter-stained with hematoxylin. Porcine liver cells were used as a positive control. For each section, a 6 μm slice counter-stained with hematoxylin without treatment with the primary antibody (mouse anti-PCNA) served as a negative control. The proliferative response to injury was studied by immunohistochemical analysis of samples from animals euthanized at 7 days. The % proliferating SMC was obtained by dividing the number of PCNA-positive SMC by the total number of SMC in each field; separate measurements were made for neointima and media layers. The proliferating cells were identified as SMC by positive staining of parallel sections with a smooth muscle actin antibody. To standardize comparison among treatment groups, measurements were obtained at 4 fixed locations separated by 90° sites for each section, and the results averaged.

[4] = tested on: endothelial nitric oxide synthase (eNOS); test: eNOS expression by immunohistochemistry; type: in vivo, pigs
Description: as §1

[5] = tested on: coronary arteries subjected to PTCA; test: Morphometric analysis of neointima hyperplasia after PTCA and local delivery; type: in vivo, pigs
Description: Eighteen juvenile farm pigs (9 female, and 9 castrated male) weighing 20-25 kg were studied. The study was approved by, and conducted in accordance with, the guidelines of the Animal Care and Ethical Research Committee of the Montreal Heart Institute. Before the procedure, animals were given 650 mg of acetylsalicylic acid and 30 mg of nifedipine orally, premedicated with intramuscular injection of 6 mg/kg of a mixture of tiletamine hydrochloride and zolazepam hydrochloride, and given 0.05 mg of atropine. The invasive procedure was performed under general anesthesia with a mixture of isoflurane (1 to 1.5%) and oxygen enriched air. The right femoral artery was cannulated percutaneously, and an 8 Fr arterial sheath was introduced. After arterial access had been obtained, 100 mg of lidocaine and 250 U/kg of heparin were administered intra-arterially via the sheath. Activated coagulation time was maintained at >300 seconds throughout the procedure. […] Standard PTCA equipment was used. An 8 Fr right Amplatz guiding catheter and right Judkins guiding catheter were used for cannulation of the left and right coronary arteries, respectively. PTCA was performed with a balloon size chosen to correspond to a balloon/artery ratio of 1.1-1.3. Three 30-second inflations at 10 atm pressure were performed with a 30-second interval between each inflation. Inflations were performed adjacent to major side branches to facilitate identification during harvesting, taking precaution not to include any side branch in the intended PTCA site. The left anterior descending, left circumflex, and right coronary arteries of each animal were subjected to PTCA. After PTCA, each coronary artery of an animal was randomized to receive either 600 μg of 17-beta estradiol locally, or vehicle alone locally, or PTCA only. The chemicals 17-beta estradiol and its vehicle 2-hydroxypropyl-beta-cyclodextrin (HPCD) were purchased from Sigma Chemical Co. The InfusaSleeve catheter (Local Med, Inc.) was used for local delivery.^12 Five ml of the designated substance was delivered at a driving pressure of 10 atm and support balloon pressure of 6 atm. Of the 18 animals, 2 died a few days after PTCA, and were excluded; thus, 16 animals were analyzed. Twelve animals were euthanized at 28 days, and 4 at 7 days. After premedication and anesthesia, the right internal jugular vein and common carotid artery were cannulated. Following cross-clamping of the descending thoracic aorta exposed via a left lateral thoracotomy, exsanguination was performed, with simultaneous administration of 1 l of 0.9% NaCl solution. The heart was perfusion-fixed in vivo with 2 l of 10% buffered formalin at 200 mm Hg pressure, removed from the animal, and placed in 10% buffered formalin solution. Coronary arteries were then dissected free from surrounding tissues. The site of PTCA was identified in relation to adjacent side branches, which served as landmarks. The injured segment was harvested with a 1 cm normal segment proximal and distal to the injured site. Serial sections 3 to 5 mm long were made from the harvested segment, with a minimum of at least 3 sections (maximum 5) from each PTCA site. Sections were stored in buffered 10% formalin and subjected to dehydration with increasing concentrations of alcohol, followed by treatment with xylene and paraffin. Each section was then cut to slices of 6 μm thickness with a microtome (Olympus cut 4060 E), and stained with Verhoeff's stain for morphometric analysis. Measurements were made with a video microscope (Leitz Diaplan, equipped with a Sony DXC 970 MD color video camera) linked to a 486 personal computer and customized software. A minimum of 3 sections for each injured segment were analyzed and results averaged. Analyses were made by a single observer unaware of the treatment group to which each segment had bee allocated. Randomly selected sections were viewed by a second observer (also blinded to protocol) independently; inter-observer variability was <5%. […]

[6] = tested on: human umbilical vein endothelial cells; conditions: HUVEC exposed to tumor necrosis factor; cited from earlier work
[7] = rats, estimated; cited from earlier work
[8] = 600 μg locally after PTCA, 28 days, mean ± SD

C[C@]12CC[C@@H]3c4ccc(O)cc4CC[C@H]3[C@@H]1CC[C@@H]2O [17-beta estradiol]
Reendothelialization ([1]; 4 weeks after PTCA): 90.6±5.5% | reendothelialization compared to PTCA only and vehicle ([1]; FIG. 4, in words): reendothelialization to a greater degree | Diameter-basal (basal coronary artery diameter) ([2]; 4 weeks after PTCA and 600 μg locally): 2.53±0.6 mm | Diameter-post Ach ([2]; Ach 10^−4M, 4 weeks): 2.28±0.61 mm | coronary artery diameter after nitroglycerin ([2]; after 10^−4 M Ach then nitroglycerin, 4 weeks): 2.61±0.48 mm | vasoconstrictive response to Ach ([2]; any Ach concentration used, in words): no significant vasoconstrictive response | changes in heart rate, ECG, or blood pressure ([2]; during the local delivery or intracoronary infusion of vasoactive agents): No changes | % PCNA-positive SMC in the media [3]: 0.4±0.3% | % of PCNA-positive SMC in the neointima [3]: 0.43±0.52% | Endothelial nitric oxide synthase expression ([4]; 4 weeks after PTCA): 35.6±11.8% | expression of eNOS compared to PTCA only and vehicle ([4]; FIG. 5, in words): greater expression of eNOS | % neointima [5, 8]: 12.16 ± 8.89% | % stenosis [5, 8]: 15.67 ± 11.13% | EELref/EELinj (vascular remodeling) [5, 8]: 1.01±0.16 | Neointima area [5, 8]: 0.4 ± 0.3 mm^2 | Neointima/Media area [5, 8]: 0.59 ± 0.48 | Restenotic index [5, 8]: 1.3 ± 0.5 | decrease of neointima formation ([5]; compared to PTCA only, 28 days): 54.6% | decrease of neointima formation ([5]; compared to vehicle alone, 28 days): 64.9% | performance of lower doses ([5]; doses of 200 and 400 μg, local): as performing as the dose of 600 μg | % neointima ([5]; female pigs): 8.29 ± 3.72% | % stenosis ([5]; female pigs): 11.09 ± 5.16% | Neointima area ([5]; female pigs): 0.25 ± 0.15 mm^2 | Neointima/Media area ([5]; female pigs): 0.32 ± 0.16 | Restenotic index ([5]; female pigs, 5 segments): 1.37 ± 0.45 | neointima hyperplasia compared to PTCA only or vehicle alone ([5]; local delivery, 28 days, in words): markedly less neointima hyperplasia; also recorded: significantly less neointima hyperplasia | % neointima ([5]; male pigs): 14.93 ± 10.68% | % stenosis ([5]; male pigs): 18.93 ± 13.39% | Neointima area ([5]; male pigs): 0.51 ± 0.34 mm^2 | Neointima/Media area ([5]; male pigs): 0.78 ± 0.55 | Restenotic index ([5]; male pigs, 7 segments): 1.2 ± 0.59 | decrease in apoptosis [6]: 50%

CC(O)COC[C@H]1O[C@@H]2O[C@H]3[C@H](O)[C@@H](O)[C@@H](O[C@H]4[C@H](O)[C@@H](O)[C@@H](O[C@H]5[C@H](O)[C@@H](O)[C@@H](O[C@H]6[C@H](O)[C@@H](O)[C@@H](O[C@H]7[C@H](O)[C@@H](O)[C@@H](O[C@H]8[C@H](O)[C@@H](O)[C@@H](O[C@H]1[C@H](O)[C@H]2O)O[C@@H]8COCC(C)O)O[C@@H]7COCC(C)O)O[C@@H]6COCC(C)O)O[C@@H]5COCC(C)O)O[C@@H]4COCC(C)O)O[C@@H]3COCC(C)O (stereo partly drawn) [HPCD, 2-hydroxypropyl-beta-cyclodextrin]
toxic dose (nephrotoxicity) [7]: 200 mg/kg

— patent US20070141109A1, “Local Deliver of 17-Beta Estradiol for Preventing Vascular Intimal Hyperplasia and for Improving Vascular Endothelium Function after Vascular Injury” (priority 1999, published 2007)
